Measurements reported in patent publication US11679098B2, “Methods for treating diseases” (UNIVERSITY OF LOUISVILLE RESEARCH FOUNDATION, INC., priority 2018, dated 2023).

Legend:
[1] = system: A549 cells (non-transfected, non-targeting gRNA); assay: Relative proliferation of A549 cells that express MGST1 (non-transfected, non-targeting gRNA); type: cell-based, human; conditions: 72 h, non-transfected A549 and non-targeting gRNA
Procedure: (§1) FIG. 4: To assess the role of MGST1 in XB05 activity, we engineered MGST1 knockout cells using CRISPR/Cas9 technology. Effect of XB05 treatment (72 h) on the relative proliferation of two independent clones of A549 cancer cells that express MGST1 (non-transfected, non-targeting gRNA) or where MGST1 was knocked out (gRNA #2, gRNA 3).
Cell proliferation & viability assays. Anti-proliferative activity of XB05 and other compounds was evaluated using a previously published 3-(4,5-dimethylthiazol-2-yl)-2,5-diphenyltetrazolium bromide (MTT) assay protocol (MORGAN “Tetrazolium (MTT) assay for cellular viability and activity” Methods Mol Biol. (1998) Vol. 79, pp. 179-83, which is herein incorporated by reference in its entirety, BATES et al. “Antiproliferative activity of G-rich oligonucleotides correlates with protein binding” J Biol Chem. (1999) Vol. 274, No. 37, pp. 26369-26377, which is herein incorporated by reference in its entirety, SALIPUR et al. “A novel small molecule that induces oxidative stress and selectively kills malignant cells” Free Radic Biol Med. (2014) Vol. 68, pp. 110-121, which is herein incorporated by reference in its entirety). Cells were seeded in quadruplicate wells in 96-well plates and allowed to adhere overnight. […] After 72 hrs of treatment with XB05 or other compounds, MTT (Sigma, St. Louis, Mo.) was added for 4 hrs prior to cell lysis. […]

[2] = DTNB assay for reactivity with free thiols, cysteine; type: physicochemical
Procedure: (§2) Dithiobis-2-nitrobenzioc acid (DTNB) assay for free sulfhydryls. Similar to previously described in SALIPUR et al. “A novel small molecule that induces oxidative stress and selectively kills malignant cells” Free Radic Biol Med. (2014) Vol. 68, pp. 110-121, which is herein incorporated by reference in its entirety, reactivity with free sulfhydryls was evaluated using DTNB (Sigma). Briefly, a 4× solution of DTNB (6 mM DTNB, 50 mM sodium acetate in 100 mM Tris-HCl, pH 8.0) and solutions of 0.5 mM cysteine (Sigma) and reduced glutathione (GSH, Sigma) in 100 mM Tris-HCl, pH 8.0 were freshly prepared. The 200 mM stock solutions of XB05, other compounds, diethylmaleate (Sigma), and maleimide (Sigma) were prepared in 100% DMSO, and subsequently diluted to 2× working solutions in 100 mM Tris-HCl, pH 8.0. Thiol compounds (final concentration 0.25 mM) and thiol-reactive compounds (final concentrations 0.04-5 mM) or vehicle were added in duplicate to a 96-well plate and incubated for 30 min at 37° C. DTNB solution was then added to each well (final concentration 400 μM), and incubated at room temperature for an additional 5 min. Absorbance at 412 nm was determined by a Biotek HT Synergy plate reader (Winooski, Vt.).

[3] = DTNB assay for reactivity with free thiols, reduced glutathione; type: physicochemical
Procedure: as §2

[4] = system: NCI60 human tumor cell line panel; assay: NCI60 human tumor cell line screen; type: cell-based
From the text: FIG. 1: Screens to Identify the role of Microsomal glutathione S-transferase 1 (MGST1). Results from the NCI's 60 human tumor cell lines screen. The COMPARE algorithm was used to probe microarray results from the cell lines to identify gene expression that correlated with this unusual pattern of growth inhibition.
NCI60 human tumor cell line screen of XB05 activity. To further investigate the initial observations of XB05's anti-cancer activities, XB05 was submitted to the National Cancer Institute's Developmental Therapeutics Program for testing with the NCI60 human tumor cell line panel. This panel consists of 60 well-characterized human tumor cell lines (SHOEMAKER “The NCI60 human tumour cell line anticancer drug screen” Nat Rev Cancer (2006) Vol. 6, No. 10, Vol. 813-823, which is herein incorporated by reference in its entirety).

[5] = system: MGST1 knockout A549 cells; assay: Relative proliferation of MGST1 knockout A549 cells (CRISPR/Cas9); type: cell-based, human; conditions: two different gRNA sequences, 72 h
Procedure: FIG. 3: To assess the role of MGST1 in XB05 activity, we engineered MGST1 knockout cells using CRISPR/Cas9 technology. Western blot analysis indicating the knockout of MGST1 in A549 cells.
as §1
Cell proliferation & viability assays. Anti-proliferative activity of XB05 and other compounds was evaluated using a previously published 3-(4,5-dimethylthiazol-2-yl)-2,5-diphenyltetrazolium bromide (MTT) assay protocol (MORGAN “Tetrazolium (MTT) assay for cellular viability and activity” Methods Mol Biol. (1998) Vol. 79, pp. 179-83, which is herein incorporated by reference in its entirety, BATES et al. “Antiproliferative activity of G-rich oligonucleotides correlates with protein binding” J Biol Chem. (1999) Vol. 274, No. 37, pp. 26369-26377, which is herein incorporated by reference in its entirety, SALIPUR et al. “A novel small molecule that induces oxidative stress and selectively kills malignant cells” Free Radic Biol Med. (2014) Vol. 68, pp. 110-121, which is herein incorporated by reference in its entirety). […]

[6] = system: A549 (lung adenocarcinoma); assay: MTT antiproliferative assay in A549 cells; type: cell-based, human
Procedure: (§3) Cell culture. A549 and IMR-90 cells were purchased from the American Type Culture Collection (ATCC), while HOP-62 and HOP-92 were obtained from the cell line repository at the National Cancer Institute. Cells were grown in the appropriate medium supplemented with 10% fetal bovine serum (FBS, Life Technologies, Grand Island, N.Y.), 62.5 μg/mL penicillin and 100 μg/mL streptomycin (Life Technologies) in a humidified incubator at 37° C. with 5% CO2. The media were as follows: Dulbecco's modified Eagle's medium (DMEM, Life Technologies) for A549 cells; RPMI 1640 (Life Technologies) for HOP-62 and HOP-92 cells; Eagle's minimal essential medium (EMEM) with Eagle's balanced salt solution (EBSS), 2 mM L-glutamine, 1500 mg/L sodium bicarbonate (Lonza, Walkersville, Md.), supplemented with 1 mM sodium pyruvate (Life Technologies) and non-essential amino acids (Life Technologies) for IMR-90 cells. Cell lines were verified with a 9-marker short tandem repeat profile and inter-species contamination test (Idexx BioResearch), although A549 cells utilized in proliferation assays were missing the Y allele at the amelogenin marker.
(§4) Cell proliferation & viability assays. Anti-proliferative activity of XB05 and other compounds was evaluated using a previously published 3-(4,5-dimethylthiazol-2-yl)-2,5-diphenyltetrazolium bromide (MTT) assay protocol (MORGAN “Tetrazolium (MTT) assay for cellular viability and activity” Methods Mol Biol. (1998) Vol. 79, pp. 179-83, which is herein incorporated by reference in its entirety, BATES et al. “Antiproliferative activity of G-rich oligonucleotides correlates with protein binding” J Biol Chem. (1999) Vol. 274, No. 37, pp. 26369-26377, which is herein incorporated by reference in its entirety, SALIPUR et al. “A novel small molecule that induces oxidative stress and selectively kills malignant cells” Free Radic Biol Med. (2014) Vol. 68, pp. 110-121, which is herein incorporated by reference in its entirety). Cells were seeded in quadruplicate wells in 96-well plates and allowed to adhere overnight. […] After 72 hrs of treatment with XB05 or other compounds, MTT (Sigma, St. Louis, Mo.) was added for 4 hrs prior to cell lysis. Each assay was performed in at least triplicate.
(§5) XB05 and related compounds were assessed for anti-proliferative activity in malignant (A549) and non-malignant (IMR-90) cells (Table A2).

[7] = system: IMR-90 (non-malignant lung fibroblasts); assay: MTT antiproliferative assay in IMR-90 cells; type: cell-based; conditions: Homo sapiens, 72 hrs treatment, read-out: MTT Antiproliferative Activity - IC50 (μM) IMR0 (non-malignant lung fibroblasts)
Procedure: as §3, §4, §5

reactivity with thiol of cysteine ([2]; FIG. 5): not reactive
reactivity with thiol of glutathione ([3]; FIG. 6): not reactive
IC50 ([6]; Homo sapiens, 72 hrs treatment, MTT): 0.4 µM
Compound: CCCCCC(O)C#CC(F)(F)Br (stereo not drawn) [XB05]
cell proliferation, % of vehicle ([1]; 1 μM): approximately 20%
cell proliferation, % of vehicle ([1]; 2 μM): ~5%
DTNB Reactivity with Thiols - DTNB assay with Cysteine ([2]; 0.25 mM cysteine, 30 min at 37° C., pH 8.0): ND (DTNB ND - not detected at concentrations up to 2.5 mM)
DTNB Reactivity with Thiols - DTNB assay with Glutathione ([3]; 0.25 mM reduced glutathione, 30 min at 37° C., pH 8.0): ND (DTNB ND - not detected at concentrations up to 2.5 mM)
activity in the NCI60 screen ([4]; 60 human tumor cell lines): activity against about one-third of cancer cells
fold less sensitive (other cell lines in the screen) ([4]; less active cell lines versus sensitive cell lines): up to 1000 fold
effect on cell proliferation after knockout of MGST1 [5]: reversed
IC30 value in A549 cells [6]: 1000 nM
IC50 [7]: 2.5 µM
